Experimental data reported in patent publication US8425894B2, “Use of oligomers of lactic acid in the treatment of gynaecological disorders” (priority 2007, dated 2013).

How the values were obtained:
[1] = Mucoadhesive properties of OMLA formulations (5 graded VAS scale); format: physicochemical; conditions: 0 = no, 4 = very pronounced mucoadhesive properties, fluid form
Procedure: Mucoadhesiveness (or bioadhesiveness) is given according to a 5 graded VAS scale, where 0 denotes no mucoadhesive properties and 4 very pronounced mucoadhesive properties.
Chemical and preformulation experiments were carried out in order to determine mucoadhesiveness of OMLA in gel or semisolid forms (see table below). The mucoadhesiveness for the OMLA judged for fluid, gel, patch, and vagitoria. Muco(Bio)adhesiveness is given according to a 5 graded VAS scale, where 0 denotes no mucoadhesive properties and 4 very pronounced mucoadhesive properties.

[2] = Comparison of in vitro release from lactic acid and OMLA 30 through a dialysis membrane; format: physicochemical
Procedure: 200 mg of LA or OMLA was placed in a dialysis bags. The bags were immersed in 50 ml of water (37° C.) and stirred in the same temperature for 48 hours. After 3, 6, 24 and 48 hours the acceptor liquid was removed and replaced with fresh water. The pH was measured at regular intervals. The liquid was titrated with 0.1 or 0.01 M KOH to measure how much LA equivalents are released. Then an excess of KOH was added and after 24 hours the solution was titrated with 0.1 or 0.01 HCl. […] The results are presented in FIG. 4A. pH was measured outside of the dialysis bags each hour between 1 to 10 and periodically up to 48 hours (FIG. 4B).

Mucoadhesiveness, Fluid [1]: 0 | release from the dialysis bag ([2]; 200 mg in dialysis bag, 50 ml water, 37° C.): immediately | ability to maintain constant acidic pH outside the dialysis bag ([2]; 50 ml water 37° C., replaced after 3, 6, 24, 48 h): not able to maintain acidic pH constant
SMILES: CC(O)C(=O)O (stereo not drawn) [LA, lactic acid]
